In patent US20170327556A1, “CARTILAGE-BINDING FUSION PROTEINS” (Merrimack Pharmaceuticals, Inc., priority 2013, published 2017):

Columns and labels:
[1] = tested on: AKT phosphorylation in bovine chondrocytes; test: Stimulation of AKT phosphorylation in primary bovine chondrocytes (pAKT ELISA); format: cell-based; settings: 10 min stimulation, doses in M (Table 4), 6x-Histidine-tagged fusion proteins
Protocol: (§1) Fusion proteins comprising IGF-1 and a cartilage matrix binding domain were prepared as described above. Six fusion proteins were prepared: GF-Fus1 (6x-Histidine-tagged), GF-Fus2(6x-Histidine-tagged), GF-Fus3 (6x-Histidine-tagged), GF-Fus4 (6x-Histidine-tagged), GF-Fus5 (6x-Histidine-tagged), and GF-Fus6 (6x-Histidine-tagged). In order to ensure that the growth factor portion of the fusion protein was active in the fusion proteins, each construct was tested for its ability to stimulate AKT phosphorylation. Wild-type IGF-1 (wtIGF) was included as a control. Bovine chondrocytes were stimulated with a range of doses of each fusion protein, and pAKT levels were measured by ELISA.
Bovine chondrocytes are isolated from the femoral chondyles of 2-4 week old bovine calves. Knee joints are mounted by removing all tissue surrounding the femur, removing the femoral head with a bone saw or hack saw, and clamping in a tissue vice. Joints are aseptically opened, removing the patella, tibia and fibula. Using a scalpel, cartilage is sliced off the femoral chondyles and placed in sterile PBS (pH=7.4) containing penicillin-streptomycin (1×, Gibco 15140-122). PBS is subsequently removed and pronase solution (50 mL per 5 g of tissue), consisting of high glucose DMEM (Life Technologies Cat#11965-092), fetal bovine serum (10% v/v, Life Technologies Cat#16140071), HEPES (100 mM, Gibco 15630-080), non-essential amino acids (1×, Sigma M7145), penicillin-streptomycin (1×, Gibco 15140-122), proline (400 μM, Sigma P5607-256), Protease Type XIV (2 mg/mL, Sigma Cat# P5147), is added for 1 hour with stirring. After rinsing twice with sterile PBS (pH=7.4), collagenase solution (50 mL per 5 g of tissue), consisting of high glucose DMEM (Life Technologies Cat#11965-092), fetal bovine serum (10% v/v, Life Technologies Cat#16140071), HEPES (100 mM, Gibco 15630-080), NEAA(1×, Sigma M7145), Penicillin-Streptomycin (1×, Gibco 15140-122), 0.25 mg/mL Collagenase P (Roche Cat#11 249 002 001), is added for 18 hours with stirring. Cell are strained, washed, and resuspended in chondrocyte culture medium (low glucose DMEM (1× Gibco 11885-084), Penicillin-Streptomycin (1×, Gibco 15140-122), non-essential amino acids (1×, Sigma M7145), and HEPES (100 mM, Gibco 15630-080)) with fetal bovine serum (10% v/v, Life Technologies Cat#16140071).
For ligand stimulation, chondrocytes were seeded at 200,000 cells/well into 96-well tissue culture plates with 100 μL of chondrocyte culture medium with fetal bovine serum (10% v/v, Life Technologies Cat#16140071). […]

[2] = tested on: bovine cartilage explants; test: In vitro joint disease model (IL-1), explanted bovine cartilage: sGAG loss; format: cell-based; settings: 13.3 nM supplied in every medium change, IL-1, relative to Disease control
Source text: (§2) Bovine cartilage explants (3 mm diameter, 1.2 mm thick) are harvested from the femoral patellar groove of 2-4 week old bovine calves. Knee joints are mounted by removing all tissue surrounding the femur, removing the femoral head with a bone saw or hack saw, and clamping in a tissue vice. Joints are aseptically opened, removing the patella, tibia and fibula. Using a 3 mm diameter disposable biopsy punch, approximately 80×3 mm diameter full thickness cartilage cores are punched from the femoral-patellar groove. A sterile knife is used to slice the cores at the cartilage-bone interface. Cores are then inserted into 3 mm diameter holes in a 1.2 mm thick sterile stainless steel plate and sliced flush with the plate using sterile razor blades to remove the excess core length, resulting in 3 mm diameter, 1.2 mm thick cartilage explants with the superficial zone cartilage intact.
(§3) Explants are cultured in 96-well plates in 300 μL of medium consisting of low glucose DMEM (1× Gibco 11885-084), Penicillin-Streptomycin (1×, Gibco 15140-122), ascorbic acid (20 μg/mL, Sigma A4403), proline (400 μM, Sigma P5607-256), non-essential amino acids (1×, Sigma M7145), and HEPES (100 mM, Gibco 15630-080). Explants from three animals (n=2-3 per animal) are used in each treatment condition for a total explant number of 8-9 per condition. Medium is changed every 2 days. On days 6 and 10, the medium is supplemented with 5 μCi/mL of ^35S-sodium sulfate (Perkin Elmer NEX041H001MC, 1 mCi).
(§4) Timepoints are taken at day 8 and 12: explant tissue is washed four times for 30 min each (2 hr total) in 1 mM unlabeled sodium sulfate in PBS. Each explant is weighed wet and frozen at −20° C. until digestion. Tissue digestion was performed with Proteinase K (Roche cat #3115879001) and each explant is digested in 1 mL 100 μg/mL Proteinase K in 50 mM Tris-HCL, 1 mM Calcium Chloride pH=8.0 buffer at 60° C. overnight. Measurement of sGAG content and DNA content is performed using standard assay methods such as those described in Hoemann, 2004, Methods in Molecular Medicine: Cartilage and Osteoarthritis. Totowa, N.J.: Humana Press Inc.; p. 127-52. ^35S-sulfate content of the digested cartilage explants was quantified by mixing 20 μL of digest with 250 μL of scintillation fluid (Perkin Elmer cat #1200-439) and counting with a WALLAC 1450 MICROBETA TRILUX scintillation counter.
(§5) Treatments were given at the following concentrations: wtIGF-1 13.3 nM=100 ng/mL (IGF-1 R&D systems 291-G1); GF-Fus1 (6x-Histidine tagged) 13.3 nM=135 ng/mL; GF-Fus2 (6x-Histidine tagged) 13.3 nM=140 ng/mL; and GF-Fus3 (6x-Histidine tagged)13.3 nM=181 ng/mL. All treatments included IL-1 and were given for either 4 days or the entire culture duration. The outcomes measured were ^35S-sulfate incorporation, DNA content, and sGAG content of plug at endpoint, and sGAG released to media for all media changes. Controls were either no treatment (Healthy) or IL-1 alone at 1 ng/mL (Disease).
(§6) FIG. 4 depicts a graph of cartilage matrix loss as measured by the cumulative percentage of total sGAG lost to the culture medium against time (days). Percentage loss is calculated by dividing the cumulative sGAG in the culture medium by the total sGAG present in the medium over the culture period plus the sGAG remaining in the explant at the end of culture. Cartilage matrix loss was reduced by each IGF fusion protein relative to the disease control at a level similar to wild-type IGF. New cartilage matrix synthesis (i.e. sulfated proteoglycan synthesis is measured by ^35S-Sulfate incorporation) during the final 48 hrs of cultures terminated at day 8 and day 12 is shown in FIGS. 5A and 5B, respectively. Cartilage matrix synthesis was increased compared to disease control by all fusion proteins (GF-Fus1, GF-Fus2, and GF-Fus3) and wild-type IGF when the fusion proteins were supplied in every medium change for the entire culture duration of 8 and 12 days (black bars). […]

[3] = tested on: bovine cartilage explants; test: In vitro joint disease model (IL-1), explanted bovine cartilage: ^35S-sulfate incorporation; format: cell-based; settings: supplied in every medium change for 8 or 12 days, IL-1, final 48 hrs, versus Disease control
Source text: as §2, §3, §4, §5, §6

[4] = ELISA binding of fusion proteins to heparan sulfate coated plates; settings: 6x-Histidine-tagged proteins, FIG. 1A
Protocol: (§7) The specificity of binding of fusion proteins to the polysaccharides heparan sulfate and chondroitin sulfate may be determined by measuring the ability of the proteins to bind polysaccharides coated on an ELISA plate. Heparin Binding Plates (BD Biosciences) are coated with 50 μl of 2-10 μg/mL concentration of heparan sulfate or chondroitin sulfate (Sigma-Aldrich®) and incubated overnight at room temperature. Plates are washed with PBS and blocked with 250 μl of 0.2% gelatin in PBS for 1 hour at 37 C. Plates are then washed with PBS and tapped dry. 50 μl of protein in a dilution series is added to the wells and incubated for 2 hours at 37 C. The protein dilution series starts from 100 nM and includes ten additional three-fold dilutions in PBS, 0.2% gelatin and one blank (PBS, 0.2% gelatin only). After the plates are washed in PBS, 50 μl of anti-human IGF-1 (Abcam) at 1:250 in PBST is added and the plates are incubated for 1 hour rotating at room temperature. Plates are washed with PBST and 100 μl of 1:1000 anti-Rabbit-HRP (Cell Signaling Technology®) in PBST is added to each well and the plate is incubated for 1 hour at room temperature. […] The absorbance is measured at 450 nm and the resulting data is analyzed using GraphPad Prism® (GraphPad Software, San Diego, Calif.). […]

[5] = ELISA binding of fusion proteins to chondroitin sulfate coated plates; settings: 6x-Histidine-tagged proteins, FIG. 1B
Protocol: as §7

BXPC-3 cells = test: Stimulation of AKT phosphorylation in BXPC-3 cells (pAKT ELISA); format: cell-based; settings: 10 min stimulation, doses in M (Table 4), 6x-Histidine-tagged fusion proteins
Protocol: as §1
For ligand stimulation, chondrocytes were seeded at 200,000 cells/well into 96-well tissue culture plates with 100 μL of chondrocyte culture medium with fetal bovine serum (10% v/v, Life Technologies Cat#16140071). Alternatively, BXPC-3 cells, a pancreatic adenocarcinoma cell line (ATCC® CRL-1687™), were seeded at 30,000 cells/well into 96-well tissue culture plates with 100 μL of BXPC-3 medium (RPMI-1640, e.g., ATCC® 30-2001™), with L-glutamine (2 mM), Penicillin-Streptomycin (1×, Gibco® 15140-122), Fetal Bovine Serum (10% v/v, Life Technologies Cat#16140071)). After 24 hrs, both chondrocytes and BXPC-3 cells were rinsed with 100 μL of sterile PBS (pH=7.4) per well and 100 μl of chondrocyte or BXPC-3 culture medium (without fetal bovine serum) was added to the corresponding cell type. After an additional 24 hrs, cells were stimulated with the doses of fusion proteins set forth in Table 4 by adding 25 μL of fusion protein at a concentration 5 times greater than the concentration listed in Table 4 to the 100 μL of medium already in the wells. After 10 min of stimulation, fusion protein was removed and wells were rinsed in ice cold PBS (pH=7.4). 50 μL/well of cell extraction buffer (Invitrogen cat# FNN0011) was added and incubated with shaking at 4° C. for 30 minutes. Lysates were then frozen at −80° C.
Corning high binding 384 well black ELISA plates (cat#3577) are coated with 30 μL of capture antibody at 4 μg/mL (anti-AKT1 total capture antibody, Upstate, Cat#05-591MG) in PBS (pH=7.4) for 16 hours at room temperature, washed and blocked with […] 2% bovine serum albumin (Sigma Cat# A3294) in PBS (pH=7.4) for 1 hour at room temperature. 20 μL of thawed lysates or recombinant pAKT standards (ten 2-fold serial dilutions of 400 ng recombinant human AKT, active (Upstate, Cat#14-276) in PBS (pH=7.4) containing 50% v/v Cell extraction buffer (Invitrogen Cat#FNN0011), 1% bovine serum albumin (Sigma Cat# A3294), 0.05% Tween20) are applied to the coated plate and incubated for 2 hours at room temperature. After washing 3 times with 100 μL/well of 0.05% Tween-20/PBS (pH=7.4) bound phospho-AKT is detected using Phospho-AKT (Ser473)(587F11)-biotinylated (Cell Signaling, Cat#5102), streptavidin-HRP (R&D Systems Cat# DY998, Part #890803), SuperSignal ELISA PicoChemiluminescent Substrate (Thermo Scientific Cat#37069), using a luminometer to detect light emissions at 425 nm.

Substance	logEC50 Mean [1]	cartilage matrix loss (% sGAG loss) [2]	cartilage matrix synthesis (^35S-sulfate incorporation) [3]	binding to heparan sulfate [4]	binding to chondroitin sulfate [5]	logEC50 Mean (BXPC-3 cells)
GF-Fus2: N-terminal Prelp HB domain fused to wild-type IGF	−8.830	reduced	increased			
GF-Fus4: IGF-1(LR3) fused to Collagen IX HB domain				did not bind	did not bind	−9.133
